For assay [1], the target named is T1, TtCinA (Thermus thermophilus, UniProt Q5SHB0).
T1 construct: gene TTHA1820; full-length, N-terminal His6 tag with thrombin site (pET28a, thrombin-treated), expressed in E. coli T7 Express; asymmetric homodimer (~72 kDa by SEC, 86 kDa predicted dimer)
The assay can be described thus: X-ray crystal structure ([…] Å; crystal soak); turnover to AMP also seen by HPLC. The class given is binding. As to conditions: ADPR site of COG1058 domain, both open and closed sites; 5 mM MgCl2, 25 mM ligand, Mg2+ bound; HPLC assay with 1 mM ADP-ribose, 4 mM CoCl2, 100 mM KCl, pH 8.0, 50 °C.

In assay [2] the target is T1, TtCinA. The assay can be described thus: X-ray crystal structure ([…] Å; crystal soak). The format is binding. As to conditions: ADPR site of COG1058 domain, open site only, weaker density; 5 mM MgCl2, 25 mM ligand (AMP/ribose 5-phosphate), Mg2+ bound.
Assay [3] deals with T1, TtCinA. Kind of assay: X-ray crystal structure ([…] Å; crystal soak). The format is binding. As to conditions: ADPR site of COG1058 domain, both sites; 5 mM MgCl2, 25 mM ligand, Mg2+ bound; no hydrolysis seen.
The target in assay [4] is T1, TtCinA. Kind of assay: X-ray crystal structure ([…] Å; crystal soaked with NMN). The class given is binding. As to conditions: NMN deamidase site; built as product NCN by presumption, density could not distinguish NMN from NCN; 5 mM MgCl2, 25 mM NMN soak.
For assay [5], the target named is T1, TtCinA. The assay can be described thus: reverse-phase HPLC of conversion to NCN. The format is biochemical. As to conditions: NMN deamidase; 1 mM NMN, 100 μg enzyme per ml, 25 mM Tris-HCl pH 8.0, 100 mM NaCl, 37 °C, 15 min.

Consider five molecules from article PMC4246079, “Structure and Mechanism of the Bifunctional CinA Enzyme from Thermus thermophilus” (The Journal of Biological Chemistry, 2014).

T1 sequence (Q5SHB0 entry or part of it): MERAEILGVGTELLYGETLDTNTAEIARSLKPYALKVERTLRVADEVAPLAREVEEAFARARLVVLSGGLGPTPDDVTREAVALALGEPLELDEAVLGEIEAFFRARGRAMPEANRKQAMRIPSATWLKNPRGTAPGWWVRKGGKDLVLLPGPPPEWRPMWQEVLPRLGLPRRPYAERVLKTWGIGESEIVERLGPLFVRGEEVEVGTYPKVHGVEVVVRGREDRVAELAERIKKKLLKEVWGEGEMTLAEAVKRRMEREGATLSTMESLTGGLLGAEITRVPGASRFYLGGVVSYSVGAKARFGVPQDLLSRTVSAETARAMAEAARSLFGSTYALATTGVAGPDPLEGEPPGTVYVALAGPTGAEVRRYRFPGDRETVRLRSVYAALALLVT

As for `Nc1ncnc2c1ncn2[C@@H]1O[C@H](COP(=O)(O)OP(=O)(O)OC[C@H]2OC(O)[C@H](O)[C@@H]2O)[C@@H](O)[C@H]1O` (some centres unmarked) [ADP-ribose], the “X-ray crystal structure (1.99 Å; crystal soak); turnover to AMP also seen by HPL” value at TtCinA [1] was “ADP-ribose and ATP data sets produced clear difference density in both catalytic sites”.

In the case of `Nc1ncnc2c1ncn2[C@@H]1O[C@H](COP(=O)(O)O)[C@@H](O)[C@H]1O` [AMP], the “X-ray crystal structure (1.98 Å; crystal soak)” value at TtCinA [2] is “it was possible to model in an AMP molecule in one of the two active sites”.

As to `Nc1ncnc2c1ncn2[C@@H]1O[C@H](COP(=O)(O)OP(=O)(O)OP(=O)(O)O)[C@@H](O)[C@H]1O` [ATP], the “X-ray crystal structure (2.21 Å; crystal soak)” value at TtCinA [3] is given as “ATP binds in a very similar conformation to ADP-ribose”.

Turning to `O=C([O-])c1ccc[n+]([C@@H]2O[C@H](COP(=O)(O)O)[C@@H](O)[C@H]2O)c1` [NCN, nicotinate mononucleotide], the “X-ray crystal structure (2.46 Å; crystal soaked with NMN)” value on TtCinA [4] is reported as “it was not possible to distinguish NMN from the product, NCN”.

`NC(=O)c1ccc[n+]([C@@H]2O[C@H](COP(=O)([O-])O)[C@@H](O)[C@H]2O)c1` [NMN, nicotinamide mononucleotide]: the “reverse-phase HPLC of conversion to NCN” value on TtCinA [5] was “NMN showed rapid conversion to NCN product in the presence of TtCinA”.
